“And” between values parts separate entries of the source, which are not always exact repeats. Identical values can stand only once.
What was measured:
[1] = tested on: RAC1-dependent membrane ruffle formation in NIH 3T3 cells; experiment: EGF-induced membrane ruffle formation; assay type: cell-based; details: EGF 10 ng/mL, inhibitors added 1 h prior; read-out: IC50, inhibition of ruffles formation
Description: Figure 2 Identification of a new RAC1 inhibitor (A) Effect of A41 and NSC23766 on ruffle formation (white arrows) induced by EGF (10 ng/mL) in NIH 3T3 cells in serum-free culture medium (CTL). Inhibitors were added at indicated concentration 1 h prior to EGF stimulation. To assess cytoskeleton organization, cells were incubated with Alexa Fluor 488 phalloidin to visualize F-actin. Results shown are representative of 3 independent experiments. Corresponding concentration-response curves have been established by counting the percentages of cells with ruffles (scale bars: 10 μm). (B) Immunoblot analysis and associated quantification of RAC-GTP level and total RAC expression in NIH 3T3 cells stimulated by EGF (10 ng/mL, 5 min) and pre-incubated or not (−) with NSC23766, A41, or A415 at 10^−5 M for 1 h (∗∗∗p < 0.001 vs. controls without EGF stimulation, ^###p < 0.001 vs. controls with EGF stimulation) (N > 3). […] (D) Representative in vitro nucleotide exchange catalyzed by the DH-PH of TIAM (10 nM) measured by the binding of fluorescent mant-GTP (1 μM) to RAC1 (0.5 μM, preloaded with GDP) in the presence of indicated concentrations of A41 (out of N = 6). […] (E) Kobs and Kmax were determined in each condition (N = 6). […]
After indicated treatments, cells were fixed with 4% paraformaldehyde and permeabilized in PBS 0.5% Triton X-100. […] Cancer cells were detected with firefly luciferase antibody (ab21176, Abcam) (dilution 1/500) overnight at room temperature, followed by secondary Alexa 488-labeled anti-rabbit antibody (dilution 1/1000). […] After staining, cells were mounted in Prolong gold antifade reagent with DAPI and images were captured by a fluorescence microscope. […]
Supp. […] For each molecule, druglikeness has been assessed according to Lipinski’s rules: molecular weight (MW)<500; high lipophilicity (LogP<5); less than 5 hydrogen bond donors (HBD); less than 10 hydrogen bond acceptors (HBA). The log P was calculated by using OSIRIS – Data Warrior software. […] IC50 was determined experimentally from the inhibition

TA100 = experiment: Bacterial cytotoxicity; assay type: cell-based
Description: (§1) Data S2. Bacterial cytotoxicity of A41.
(§2) Test Concentration %Effect Cytotoxicity (% of control) […]

TA1535 = experiment: Bacterial cytotoxicity; assay type: cell-based
Description: as §1, §2

[2] = Ames fluctuation test (7th group); assay type: cell-based
Description: Data S3. Ames-fluctuation assay-A41.
Test Concentration Count Positive Significance Fisher Exact Test

A-Raf(h) = A-Raf(h) (Homo sapiens, UniProt P10398); experiment: Kinase Profiler; assay type: biochemical
Sequence of A-Raf(h) (P10398 whole entry): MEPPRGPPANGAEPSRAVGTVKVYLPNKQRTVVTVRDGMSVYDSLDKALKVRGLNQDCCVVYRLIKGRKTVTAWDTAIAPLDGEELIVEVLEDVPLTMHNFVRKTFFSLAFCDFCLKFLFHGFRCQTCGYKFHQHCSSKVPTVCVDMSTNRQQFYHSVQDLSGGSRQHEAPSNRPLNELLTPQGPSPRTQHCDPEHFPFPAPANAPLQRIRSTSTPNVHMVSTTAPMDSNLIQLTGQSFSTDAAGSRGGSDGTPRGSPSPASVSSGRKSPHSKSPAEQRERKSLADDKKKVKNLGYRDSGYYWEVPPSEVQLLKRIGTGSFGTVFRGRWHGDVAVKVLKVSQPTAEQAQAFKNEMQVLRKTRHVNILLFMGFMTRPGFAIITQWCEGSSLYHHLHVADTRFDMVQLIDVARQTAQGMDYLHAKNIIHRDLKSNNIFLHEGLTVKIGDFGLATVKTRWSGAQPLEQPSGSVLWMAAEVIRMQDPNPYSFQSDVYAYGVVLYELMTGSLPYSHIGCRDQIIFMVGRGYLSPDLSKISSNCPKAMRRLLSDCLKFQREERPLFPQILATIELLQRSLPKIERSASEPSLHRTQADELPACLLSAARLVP
Description: (§3) Blood cell counts, kinase profiler, safety screen, bacterial cytotoxicity, Ames, micronucleus assays were performed by the company Eurofins (France). The kinase profiler was performed by the company Eurofins (Discovery, Panlab and Cerep).

BTK(h) = BTK(h) (Homo sapiens, UniProt Q06187); experiment: Kinase Profiler; assay type: biochemical
Sequence of BTK(h) (Q06187 whole entry): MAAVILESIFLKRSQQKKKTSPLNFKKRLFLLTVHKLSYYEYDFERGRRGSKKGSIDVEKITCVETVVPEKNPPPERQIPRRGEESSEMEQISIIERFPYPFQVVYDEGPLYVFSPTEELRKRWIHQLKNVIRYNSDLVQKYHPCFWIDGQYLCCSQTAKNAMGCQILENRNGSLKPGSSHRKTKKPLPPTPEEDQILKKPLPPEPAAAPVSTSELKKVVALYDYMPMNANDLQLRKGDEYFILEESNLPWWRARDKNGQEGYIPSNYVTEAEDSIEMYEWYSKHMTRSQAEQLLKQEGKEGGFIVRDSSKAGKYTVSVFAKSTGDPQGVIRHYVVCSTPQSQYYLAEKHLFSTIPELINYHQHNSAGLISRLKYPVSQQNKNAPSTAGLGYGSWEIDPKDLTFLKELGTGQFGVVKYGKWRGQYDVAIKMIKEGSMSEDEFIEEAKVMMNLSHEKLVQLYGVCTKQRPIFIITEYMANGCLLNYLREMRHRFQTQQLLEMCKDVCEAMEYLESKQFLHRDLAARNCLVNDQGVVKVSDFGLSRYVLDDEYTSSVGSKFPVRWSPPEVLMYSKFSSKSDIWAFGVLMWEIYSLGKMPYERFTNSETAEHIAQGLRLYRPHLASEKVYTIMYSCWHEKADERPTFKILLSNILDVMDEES
Description: as §3

CDKL1(h) = CDKL1(h) (Homo sapiens, UniProt Q00532); experiment: Kinase Profiler; assay type: biochemical
Sequence of CDKL1(h) (Q00532 whole entry): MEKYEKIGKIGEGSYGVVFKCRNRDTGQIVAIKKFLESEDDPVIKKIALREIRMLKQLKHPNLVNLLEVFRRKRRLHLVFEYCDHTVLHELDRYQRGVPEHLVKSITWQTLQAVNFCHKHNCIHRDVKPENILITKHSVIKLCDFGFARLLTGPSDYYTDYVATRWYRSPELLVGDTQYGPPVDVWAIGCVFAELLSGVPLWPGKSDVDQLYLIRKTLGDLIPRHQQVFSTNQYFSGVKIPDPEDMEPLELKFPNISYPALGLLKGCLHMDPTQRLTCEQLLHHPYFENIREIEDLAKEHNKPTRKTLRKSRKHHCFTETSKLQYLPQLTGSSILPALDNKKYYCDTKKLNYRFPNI
Description: (§4) The kinase profiler was performed by the company Eurofins (Discovery, Panlab and Cerep).

DAPK2(h) = DAPK2(h) (Homo sapiens, UniProt Q9UIK4); experiment: Kinase Profiler; assay type: biochemical
Sequence of DAPK2(h) (Q9UIK4 whole entry): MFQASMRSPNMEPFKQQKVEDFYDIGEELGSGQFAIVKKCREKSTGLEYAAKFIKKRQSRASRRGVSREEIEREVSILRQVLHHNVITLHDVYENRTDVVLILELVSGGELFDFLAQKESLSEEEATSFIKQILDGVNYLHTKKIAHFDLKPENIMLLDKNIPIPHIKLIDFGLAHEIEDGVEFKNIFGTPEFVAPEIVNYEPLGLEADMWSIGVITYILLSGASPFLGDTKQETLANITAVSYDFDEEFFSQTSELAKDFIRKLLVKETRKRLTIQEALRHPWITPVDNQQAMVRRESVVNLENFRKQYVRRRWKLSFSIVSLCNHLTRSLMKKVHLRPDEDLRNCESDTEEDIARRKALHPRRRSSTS
Description: as §3

EphB2(h) = EphB2(h) (Homo sapiens, UniProt P29323); experiment: Kinase Profiler; assay type: biochemical
Sequence of EphB2(h) (P29323 19-1055): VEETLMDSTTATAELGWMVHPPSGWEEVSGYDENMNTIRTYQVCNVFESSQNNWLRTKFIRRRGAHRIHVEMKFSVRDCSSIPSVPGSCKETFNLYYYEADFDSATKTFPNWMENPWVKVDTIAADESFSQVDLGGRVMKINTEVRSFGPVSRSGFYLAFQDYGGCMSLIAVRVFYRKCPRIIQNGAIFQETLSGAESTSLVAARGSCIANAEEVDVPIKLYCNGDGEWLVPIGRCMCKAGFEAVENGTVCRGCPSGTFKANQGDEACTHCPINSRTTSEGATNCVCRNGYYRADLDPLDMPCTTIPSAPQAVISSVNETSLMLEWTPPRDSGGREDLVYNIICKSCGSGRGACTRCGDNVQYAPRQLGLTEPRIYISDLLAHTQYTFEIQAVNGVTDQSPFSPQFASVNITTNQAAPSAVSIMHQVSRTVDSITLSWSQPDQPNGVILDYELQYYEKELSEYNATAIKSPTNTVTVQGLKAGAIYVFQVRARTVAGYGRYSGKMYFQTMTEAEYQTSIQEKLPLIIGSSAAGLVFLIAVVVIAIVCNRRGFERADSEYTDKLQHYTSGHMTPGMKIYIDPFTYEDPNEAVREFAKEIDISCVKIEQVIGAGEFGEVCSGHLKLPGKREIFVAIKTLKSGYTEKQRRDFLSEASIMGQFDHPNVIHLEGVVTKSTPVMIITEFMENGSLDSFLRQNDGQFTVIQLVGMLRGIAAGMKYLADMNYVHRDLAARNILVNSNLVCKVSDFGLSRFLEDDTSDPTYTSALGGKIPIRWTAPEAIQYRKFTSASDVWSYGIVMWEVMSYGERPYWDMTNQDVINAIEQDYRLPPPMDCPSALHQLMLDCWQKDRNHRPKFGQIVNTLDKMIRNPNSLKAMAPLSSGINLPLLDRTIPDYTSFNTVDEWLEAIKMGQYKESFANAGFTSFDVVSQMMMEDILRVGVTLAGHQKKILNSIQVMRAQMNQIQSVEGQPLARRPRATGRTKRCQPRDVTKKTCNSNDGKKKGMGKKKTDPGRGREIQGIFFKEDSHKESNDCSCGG
Description: as §3

SLK(h) = SLK(h) (Homo sapiens, UniProt Q9H2G2); experiment: Kinase Profiler; assay type: biochemical
Sequence of SLK(h) (Q9H2G2 whole entry): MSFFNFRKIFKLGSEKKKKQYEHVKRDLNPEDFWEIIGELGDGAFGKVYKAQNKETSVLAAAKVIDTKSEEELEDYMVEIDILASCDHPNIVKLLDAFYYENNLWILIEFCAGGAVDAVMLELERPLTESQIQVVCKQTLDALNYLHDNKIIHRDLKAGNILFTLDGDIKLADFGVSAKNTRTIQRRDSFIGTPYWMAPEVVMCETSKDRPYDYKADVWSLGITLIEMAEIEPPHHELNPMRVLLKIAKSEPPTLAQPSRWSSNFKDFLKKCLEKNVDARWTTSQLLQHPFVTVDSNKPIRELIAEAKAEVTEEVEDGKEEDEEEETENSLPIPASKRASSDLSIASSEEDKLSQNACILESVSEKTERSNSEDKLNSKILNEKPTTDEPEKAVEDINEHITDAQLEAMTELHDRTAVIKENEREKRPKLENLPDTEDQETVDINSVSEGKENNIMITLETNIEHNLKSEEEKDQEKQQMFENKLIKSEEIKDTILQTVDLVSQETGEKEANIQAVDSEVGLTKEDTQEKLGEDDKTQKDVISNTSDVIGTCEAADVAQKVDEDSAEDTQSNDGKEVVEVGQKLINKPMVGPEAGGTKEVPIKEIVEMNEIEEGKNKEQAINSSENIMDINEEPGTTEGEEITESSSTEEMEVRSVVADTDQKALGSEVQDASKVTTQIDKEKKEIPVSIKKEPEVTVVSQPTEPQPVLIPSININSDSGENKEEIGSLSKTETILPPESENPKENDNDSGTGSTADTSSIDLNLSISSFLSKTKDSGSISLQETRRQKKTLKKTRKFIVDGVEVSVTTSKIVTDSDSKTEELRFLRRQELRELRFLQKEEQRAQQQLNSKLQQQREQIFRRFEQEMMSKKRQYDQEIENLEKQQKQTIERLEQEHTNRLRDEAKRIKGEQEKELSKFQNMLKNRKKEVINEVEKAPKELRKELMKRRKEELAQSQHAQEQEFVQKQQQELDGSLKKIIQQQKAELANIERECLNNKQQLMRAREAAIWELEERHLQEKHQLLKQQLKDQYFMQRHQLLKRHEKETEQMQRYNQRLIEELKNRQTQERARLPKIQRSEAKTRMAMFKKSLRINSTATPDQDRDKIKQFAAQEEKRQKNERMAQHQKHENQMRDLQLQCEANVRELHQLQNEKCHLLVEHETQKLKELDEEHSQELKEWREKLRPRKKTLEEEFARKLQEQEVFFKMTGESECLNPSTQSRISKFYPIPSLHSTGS
Description: as §4

[3] = biological target: Cholinesterase, Acetyl, ACES (Homo sapiens, UniProt P22303)
Sequence of Cholinesterase, Acetyl, ACES (P22303 32-614): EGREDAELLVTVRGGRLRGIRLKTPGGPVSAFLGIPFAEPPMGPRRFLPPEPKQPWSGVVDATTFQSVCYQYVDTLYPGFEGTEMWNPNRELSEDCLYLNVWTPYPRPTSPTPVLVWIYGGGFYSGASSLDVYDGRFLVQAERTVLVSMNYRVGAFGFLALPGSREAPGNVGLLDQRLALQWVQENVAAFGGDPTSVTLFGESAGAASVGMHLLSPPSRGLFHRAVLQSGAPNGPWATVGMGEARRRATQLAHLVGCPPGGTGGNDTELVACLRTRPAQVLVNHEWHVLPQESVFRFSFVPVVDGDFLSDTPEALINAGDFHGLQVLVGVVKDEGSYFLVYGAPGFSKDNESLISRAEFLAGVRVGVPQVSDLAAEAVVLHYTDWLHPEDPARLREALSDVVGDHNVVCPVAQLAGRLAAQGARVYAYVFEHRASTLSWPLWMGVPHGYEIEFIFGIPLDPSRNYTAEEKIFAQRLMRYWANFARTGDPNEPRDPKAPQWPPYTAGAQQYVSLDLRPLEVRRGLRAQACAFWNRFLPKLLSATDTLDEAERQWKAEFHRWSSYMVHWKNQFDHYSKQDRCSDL
Description: as §3

COc1ccc(OC)c(NS(=O)(=O)c2ccc(NC(=O)CCSc3ccc(C)cc3)cc2)c1 [Compound A41]
IC50 [1]: 2.5 nM
%Effect, single replicates (1st, 2nd, 3rd) (TA100; - S9, 1.0E-04 M): 222.5% and 205.5% and 199.0%
Cytotoxicity (% of control), Mean %Effect (TA100; - S9, 1.0E-04 M): 209.0%
%Effect, single replicates (1st, 2nd, 3rd) (TA100; - S9, 1.0E-05 M): 116.5% and 108.6% and 92.9%
Cytotoxicity (% of control), Mean %Effect (TA100; - S9, 1.0E-05 M): 106.0%
%Effect, single replicates (1st, 2nd, 3rd) (TA100; - S9, 1.2E-06 M): 103.4% and 99.5% and 92.9%
Cytotoxicity (% of control), Mean %Effect (TA100; - S9, 1.2E-06 M): 98.6%
%Effect, single replicates (1st, 2nd, 3rd) (TA100; - S9, 2.5E-05 M): 113.9% and 111.3% and 100.8%
Cytotoxicity (% of control), Mean %Effect (TA100; - S9, 2.5E-05 M): 108.6%
%Effect, single replicates (1st, 2nd, 3rd) (TA100; - S9, 2.5E-06 M): 106.0% and 103.4% and 92.9%
Cytotoxicity (% of control), Mean %Effect (TA100; - S9, 2.5E-06 M): 100.8%
%Effect, single replicates (1st, 2nd, 3rd) (TA100; - S9, 5.0E-05 M): 112.6% and 53.1% and 102.1%
%Effect, single replicates (1st, 2nd, 3rd) (TA100; - S9, 5.0E-06 M): 116.5% (2×) and 91.6%
Cytotoxicity (% of control), Mean %Effect (TA100; - S9, 5.0E-06 M): 108.2%
%Effect, single replicates (1st, 2nd, 3rd) (TA100; - S9, 6.0E-07 M): 104.7% (2×) and 98.2%
Cytotoxicity (% of control), Mean %Effect (TA100; - S9, 6.0E-07 M): 102.5%
%Effect, single replicates (1st, 2nd, 3rd) (TA1535; - S9, 1.0E-04 M): 219.4% and 233.3% and 215.9%
Cytotoxicity (% of control), Mean %Effect (TA1535; - S9, 1.0E-04 M): 222.9%
%Effect, single replicates (1st, 2nd, 3rd) (TA1535; - S9, 1.0E-05 M): 96.4% and 98.7% and 108.0%
Cytotoxicity (% of control), Mean %Effect (TA1535; - S9, 1.0E-05 M): 101.0%
%Effect, single replicates (1st, 2nd, 3rd) (TA1535; - S9, 1.2E-06 M): 91.7% and 97.5% and 88.2%
Cytotoxicity (% of control), Mean %Effect (TA1535; - S9, 1.2E-06 M): 92.5%
%Effect, single replicates (1st, 2nd, 3rd) (TA1535; - S9, 2.5E-05 M): 116.1% and 99.8% and 98.7%
Cytotoxicity (% of control), Mean %Effect (TA1535; - S9, 2.5E-05 M): 104.9%
%Effect, single replicates (1st, 2nd, 3rd) (TA1535; - S9, 2.5E-06 M): 92.9% and 91.7% and 97.5%
Cytotoxicity (% of control), Mean %Effect (TA1535; - S9, 2.5E-06 M): 94.0%
%Effect, single replicates (1st, 2nd, 3rd) (TA1535; - S9, 5.0E-05 M): 168.3% and 163.7% and 175.3%
Cytotoxicity (% of control), Mean %Effect (TA1535; - S9, 5.0E-05 M): 169.1%
%Effect, single replicates (1st, 2nd, 3rd) (TA1535; - S9, 5.0E-06 M): 96.4% and 95.2% and 99.8%
Cytotoxicity (% of control), Mean %Effect (TA1535; - S9, 5.0E-06 M): 97.1%
%Effect, single replicates (1st, 2nd, 3rd) (TA1535; - S9, 6.0E-07 M): 89.4% and 96.4% and 94.0%
Cytotoxicity (% of control), Mean %Effect (TA1535; - S9, 6.0E-07 M): 93.3%
Count Positive (# of wells) ([2]; 1.0E-04 M): 1
Count Positive (# of wells) ([2]; 1.0E-05 M): 0
Count Positive (# of wells) ([2]; 5.0E-05 M): 0
Count Positive (# of wells) ([2]; 5.0E-06 M): 1
Activity(%) (A-Raf(h)): 85%
Activity(%) (BTK(h)): 117%
Activity(%) (CDKL1(h)): 105%
Activity(%) (DAPK2(h)): 99%
Activity(%) (EphB2(h)): 97%
Activity(%) (SLK(h)): 127%
% inh. [3]: 64%
